According to patent US12226386B2, “Compositions and methods for treating biofilms” (The Regents of the University of California, priority 2018, dated 2025):
Read-outs that look alike come from different tables or passages of the source.

How the values were obtained:
[1] = system: bacteria (S. aureus) biofilm and fungal (C. albicans) biofilm; experiment: sustained inhibition biofilm assay, bacterial and fungal taken together; assay type: cell-based, Staphylococcus aureus; Candida albicans; conditions: 1% amino acid
Procedure: (§1) Other amino acids in the blood of animals could combat bacterial and fungal biofilm and therefore may be useful in treating these bacterial and fungal infections that would lie on the external surfaces of infected animals such as humans and could also be used to combat these pathogens on instruments and surfaces that need to be treated. Two types of biofilm assays were performed: a sustained inhibition assay and a disruption assay. The sustained inhibition assay assessed the compound's ability to prevent biofilm development throughout all stages of biofilm formation, while the disruption assay assessed the compound's ability to break up an existing mature biofilm.
(§2) For fungal biofilm assays, all solutions were prepared in RPMI 1640 medium. All bacterial biofilm solutions were prepared in Tryptic Soy Broth (TSB), supplemented with 1% glucose (henceforth referred to as TSB-G). All subsequent procedures were performed in a manner that maintained sterility. A solution of each amino acid to be tested was prepared in weight to volume concentrations ranging from 0.1-5.0%. Amino acids were also tested in combinations. Compound solutions were homogenized with gentle agitation in the dark (4° C., 24 hours) before use.
Fungal strains were streaked on Yeast Peptone Dextrose (YPD) agar plates and incubated at 30° C. for 48 hours. A single colony from each strain to be tested was inoculated into YPD broth and grown for 12 hours, at 30° C., shaking at 225 rpm. For the fungal biofilm inhibition assay, 1 μl of saturated overnight cell culture was added to either 80 μL of RPMI-1640 or RPMI-1640 supplemented with the amino acid compound solution to be tested, in a 384-well plate. […] Media was carefully aspirated and the biofilm was measured by optical density at 600 nm. […] Media was carefully aspirated and the biofilm was measured by optical density at 600 nm. […]
Bacterial strains were streaked on Blood Agar plates (5% sheep blood in Tryptic Soy Agar) and incubated at 37° C. for 24 hours. […] Media was carefully aspirated and the biofilm was measured by optical density at 600 nm. […]

[2] = system: Candida and Staphylococcus biofilms; experiment: biofilm assays (sustained inhibition and disruption), bacterial and fungal; assay type: cell-based, Candida albicans; Staphylococcus aureus; conditions: Tables 4 and 5
Procedure: (§3) In vitro biofilm formation was tested using two assays, sustained inhibition and disruption. Both assays assess biofilm formed on polystyrene plates. The first, tests the effects of amino acid solution on a developing biofilm, while the latter tests the effects of the solution on a pre-formed mature biofilm, both compared to media without supplemented amino acids.
as §1, §2
Fungal strains were streaked on Yeast Peptone Dextrose (YPD) agar plates and incubated at 30° C. for 48 hours. A single colony from each strain to be tested was inoculated into YPD broth and grown for 12 hours, at 30° C., shaking at 225 rpm. For the fungal biofilm inhibition assay, 1 μl of saturated overnight cell culture was added to either 80 μL of RPMI-1640 or RPMI-1640 supplemented with the amino acid compound solution to be tested, in a 384-well plate. The cells were allowed to adhere to the plate for 90 minutes at 37° C. shaking at 350 rpm. Loosely bound cells were washed once with phosphate buffered saline (PBS) and 80 μl of RPMI-1640, or RPMI-1640 supplemented with the amino acid compound solution was added to the plate. The plate was further incubated for 24 hours at 37° C. shaking at 350 rpm. Media was carefully aspirated and the biofilm was measured by optical density at 600 nm. Twelve replicates were performed for each tested condition and the reported values are normalized to the control (RPMI-1640 media only). For the fungal biofilm disruption assays, 80 μL of RPMI-1640 was added to the plate, along with 1 μL of overnight cell culture. The cells were allowed to adhere to the plate for 90 minutes at 37° C. shaking at 350 rpm. Loosely bound cells were washed once with PBS and 80 μL of RPMI-1640 was added to the plate. The plate was further incubated for 24 hours at 37° C. shaking at 350 rpm. Media was carefully aspirated from the mature biofilm and 80 μL of RPMI-1640, or RPMI-1640 supplemented with the amino acid compound solution to be tested, was gently added to the plate. The plate was further incubated for 24 hours at 37° C. shaking at 350 rpm. Media was carefully aspirated and the biofilm was measured by optical density at 600 nm. Twelve replicates were performed for each tested condition and the reported values are normalized to the control (RPMI-1640 media only).
Bacterial strains were streaked on Blood Agar plates (5% sheep blood in Tryptic Soy Agar) and incubated at 37° C. for 24 hours. A single colony from each strain to be tested was inoculated in a TSB broth and grown for 12 hours, at 37° C. shaking at 225 rpm. For the bacterial biofilm inhibition assays, 1 μL of saturated overnight cell culture was added to either 80 μL of TSB-G, or TSB-G supplemented with the amino acid compound solution to be tested, in a 384-well plate. […]

[3] = system: S. aureus (MRSA) biofilms; experiment: in vitro biofilm disruption assay, bacterial; assay type: cell-based; conditions: Staphylococcus aureus, 24 h
Procedure: as §3, §1, §2
Bacterial strains were streaked on Blood Agar plates (5% sheep blood in Tryptic Soy Agar) and incubated at 37° C. for 24 hours. A single colony from each strain to be tested was inoculated in a TSB broth and grown for 12 hours, at 37° C. shaking at 225 rpm. For the bacterial biofilm inhibition assays, 1 μL of saturated overnight cell culture was added to either 80 μL of TSB-G, or TSB-G supplemented with the amino acid compound solution to be tested, in a 384-well plate. The cells were allowed to adhere to the plate for 60 minutes at 37° C. without shaking. The media was carefully aspirated and 80 μL of TSB-G, or TSB-G supplemented with the amino acid compound solution was added to the plate. The plate was further incubated for 24 hours at 37° C. without shaking. Media was carefully aspirated and the biofilm was measured by optical density at 600 nm. Eight or twelve replicates were performed for each tested condition and the reported values are normalized to the control (TSB-G media only). For the bacterial biofilm disruption assays, 80 μL of TSB-G was added to the plate, along with 1 μL of overnight cell culture. The cells were allowed to adhere to the plate for 60 minutes at 37° C. with no shaking. The media was carefully aspirated and 80 μL of TSB-G was added to the plate. The plate was further incubated for 24 hours at 37° C. with no shaking. Media was carefully aspirated from the mature biofilm and 80 μL of TSB-G, or TSB-G supplemented with the amino acid to be tested, was gently added to the plate. The plate was further incubated for 24 hours at 37° C. without shaking. Media was aspirated and the biofilm was measured by optical density at 600 nm. Twelve replicates were performed for each tested condition and the reported values are normalized to the control (TSB-G media only).
For disruption assay, 80 μl of TSB-G was added to the plate, along with 1 μl of overnight cell culture. The cells were allowed to adhere to the plate for 60 minutes at 37° C. with no shaking. The media was carefully aspirated and 80 μl of TSB-G was added to the plate. The plate was further incubated for 24 hours at 37° C. with no shaking. Media was carefully aspirated from the mature biofilm and 80 μl of TSB-G, or TSB-G supplemented with the amino acid to be tested, was added drop wise to the plate. The plate was further incubated for 24 hours at 37° C. with no shaking. […]

[4] = disruption, S. aureus, 1% amino acid, p<0.001, read-out: Reduce B Biofilm

Row | Structure (SMILES) | Reduce Both [1] | effect on Candida and Staphylococcus biofilms in inhibition and disruption assays [2] | inhibition at 1 % [3, 4] [%] | inhibition at 1 % ([3]; read-out: Reduce B Biofilm) [%]
1 | N[C@@H](CS)C(=O)O [Cysteine, L-cysteine] | ●● (two dots [i.e. ●●] signifies major effect (greater than about 30% change)) | both inhibit and disrupt | > 30 | 
2 | N[C@@H](CC(=O)O)C(=O)O [Aspartic Acid, L-aspartic acid] | ●● (two dots [i.e. ●●] signifies major effect (greater than about 30% change)) | both inhibit and disrupt | > 30 | 
3 | N[C@@H](CCC(=O)O)C(=O)O [Glutamic Acid, L-glutamic acid] | ●● (two dots [i.e. ●●] signifies major effect (greater than about 30% change)) | both inhibit and disrupt |  | > 30
